Reference: ChEMBL document CHEMBL4024747, “Design, Synthesis, and Biological Activities of Vibsanin B Derivatives: A New Class of HSP90 C-Terminal Inhibitors” (J Med Chem, 2017)
Calls of active or inactive are those of the source. The rule behind the calls is not given here.

Legend:
Format in all cases: functional, cell-based
MCF7 = experiment: Antiproliferative activity against human MCF7 cells assessed as reduction in cell viability after 48 hrs by MTT assay; details: MCF7, 48 h
SMMC-7721 = experiment: Antiproliferative activity against human SMMC7721 cells assessed as reduction in cell viability after 48 hrs by MTT assay; details: for IC50: SMMC-7721, 48 h
SW480 = experiment: Antiproliferative activity against human SW480 cells assessed as reduction in cell viability after 48 hrs by MTT assay; details: for IC50: SW480, 48 h
A549 = experiment: Antiproliferative activity against human A549 cells assessed as reduction in cell viability after 48 hrs by MTT assay; details: for IC50: A549, 48 h
HL-60 = experiment: Antiproliferative activity against human HL60 cells assessed as reduction in cell viability after 48 hrs by MTT assay; details: for IC50: HL-60, 48 h

SMILES	IC50 (MCF7) [µM]	IC50 (SMMC-7721) [µM]	IC50 (SW480) [µM]	IC50 (A549) [µM]	IC50 (HL-60) [µM]	Activity (SMMC-7721)	Activity (SW480)	Activity (A549)	Activity (HL-60)
CC(C)=CCC[C@]1(C)/C=C/[C@@H](OC(=O)c2ccccc2)[C@](C)(O)/C=C/C(=O)/C(CO)=C\C1	27	20.3	10.3	15.8	22.6	–	–	–	–
CO[C@]1(C)/C=C/C(=O)/C(CO)=C\C[C@](C)(CCC=C(C)C)/C=C/[C@H]1OC(=O)C=C(C)C	14.3	15.8	15.2	14.3	14.3	–	–	–	–
CC(C)=CCC[C@]1(C)/C=C/[C@@H](OC(=O)C=C(C)C)[C@](C)(O)/C=C/C(=O)/C(C=O)=C\C1	12.6	–	–	–	–	Active	Active	Active	Active
CC(C)=CCC[C@]1(C)/C=C/[C@@H](OC(=O)C=C(C)C)[C@](C)(O)/C=C/C(=O)/C(CO[Si](c2ccccc2)(c2ccccc2)C(C)(C)C)=C\C1	15.8	38	20.7	13	14.4	–	–	–	–
CC(C)=CCC[C@](C)(/C=C/[C@@H](OC(=O)C=C(C)C)[C@](C)(O)/C=C/C(=O)/C=C/N1CCN(C)CC1)CC=O	8.84	3.09	12.4	2.66	1.06	–	–	–	–
CO[C@@H]1/C=C/[C@@](C)(O)[C@H](OC(=O)C=C(C)C)/C=C/[C@@](C)(CCC=C(C)C)C/C=C\1CO	33.3	38.8	12.8	11.2	13.8	–	–	–	–
CC(C)=CCC[C@](C)(/C=C/[C@@H](OC(=O)C=C(C)C)[C@](C)(O)/C=C/C(=O)/C=C/N(C)C)CC=O	12.2	10.2	10.3	11.2	4.69	–	–	–	–
CC(C)=CCC[C@]1(C)/C=C/[C@@H](OC(=O)C(C)C)[C@](C)(O)/C=C/C(=O)/C(CO)=C\C1	11.7	10.4	8.51	10.8	4	–	–	–	–
CC(C)=CCC[C@]1(C)/C=C/[C@@H](OC(=O)C=C(C)C)[C@](C)(O)/C=C/C(=O)/C(C(=O)N2CCCC2)=C\C1	17.2	14.9	15.1	13	12.3	–	–	–	–
CC(C)=CCC[C@]1(C)/C=C/[C@@H](OC(=O)C=C(C)C)[C@](C)(O)/C=C/[C@@H](O)/C(CO)=C\C1	17.4	16.4	19.7	18.7	15.9	–	–	–	–
CO[C@H]1/C=C/[C@@](C)(O)[C@H](OC(=O)C=C(C)C)/C=C/[C@@](C)(CCC=C(C)C)C/C=C\1CO	18.5	38.1	16.6	19.2	14.8	–	–	–	–
CC(C)=CCC[C@]1(C)/C=C/[C@@H](OC(=O)C=C(C)C)[C@](C)(O)/C=C/C(=O)/C(C(=O)N(C(C)C)C(C)C)=C\C1	17.2	17.2	16	13.5	12.7	–	–	–	–
CC(C)=CCC[C@]1(C)/C=C/[C@@H](OC(=O)C=C(C)C)[C@](C)(O)CCC(=O)/C(CO)=C\C1	> 40	> 40	> 40	> 40	> 40	–	–	–	–
CC(C)=CCC[C@]1(C)/C=C/[C@@H](OC(=O)C=C(C)C)[C@](C)(O)/C=C/[C@H](O)/C(CO)=C\C1	33	> 40	> 40	> 40	> 40	–	–	–	–
COC/C1=C/C[C@](C)(CCC=C(C)C)/C=C/[C@@H](OC(=O)C=C(C)C)[C@](C)(OC)/C=C/C1=O	16.5	9.38	14.6	4.18	4.05	–	–	–	–
COCO[C@@H]1/C=C/[C@@](C)(CCC=C(C)C)C/C=C(/CO)C(=O)/C=C/[C@@]1(C)O	> 40	> 40	> 40	> 40	> 40	–	–	–	–
CC(C)=CCC[C@](C)(/C=C/[C@@H](OC(=O)C=C(C)C)[C@](C)(O)/C=C/C(=O)/C=C/N1CCOCC1)CC=O	12.3	7.44	9.88	8.73	4.06	–	–	–	–
CC(=O)O[C@@H]1/C=C/[C@@](C)(CCC=C(C)C)C/C=C(/CO)C(=O)/C=C/[C@@]1(C)O	7.89	9.87	4.9	8.67	5.05	–	–	–	–
CC(C)=CCC[C@]1(C)/C=C/[C@@H](OC(=O)C=C(C)C)[C@](C)(O)/C=C/C(=O)/C(C(=O)O)=C\C1	16.1	> 10	> 10	> 10	> 10	–	–	–	–
CCN(CC)C(=O)/C1=C/C[C@](C)(CCC=C(C)C)/C=C/[C@@H](OC(=O)C=C(C)C)[C@](C)(O)/C=C/C1=O	12.1	13.8	11.7	11.3	9.08	–	–	–	–

Compounds with a lower IC50 (MCF7), results first:

IC50 (MCF7) [µM]	IC50 (SMMC-7721) [µM]	IC50 (SW480) [µM]	IC50 (A549) [µM]	IC50 (HL-60) [µM]	SMILES	Activity (SMMC-7721)	Activity (SW480)	Activity (A549)	Activity (HL-60)
3.15	3.46	2.69	3.1	2.81	CC[Si](CC)(CC)OC/C1=C/C[C@](C)(CCC=C(C)C)/C=C/[C@@H](OC(=O)C=C(C)C)[C@](C)(O)/C=C/C1=O	–	–	–	–
6.3	11.7	4.52	8.44	5.47	CC(C)=CCC[C@]1(C)/C=C/[C@@H](OC(=O)C=C(C)C)[C@](C)(O)/C=C/C(=O)/C(C(=O)N2CCN(C)CC2)=C\C1	–	–	–	–
3.36	3.68	2.8	1.67	3.27	CC(C)=CCC[C@]1(C)/C=C/[C@@H](OC(=O)C=C(C)C)[C@](C)(O)/C=C/C(=O)/C(C(=O)N2CCOCC2)=C\C1	–	–	–	–
4.51	2.95 to 4.63	2.95 to 4.63	2.95 to 4.63	2.95 to 4.63	CC(=O)OC/C1=C/C[C@](C)(CCC=C(C)C)/C=C/[C@@H](OC(=O)C=C(C)C)[C@](C)(O)/C=C/C1=O	–	–	–	–
2.51	3.47	2.63	3.47	4.76	CO/N=C/C1=C/C[C@](C)(CCC=C(C)C)/C=C/[C@@H](OC(=O)C=C(C)C)[C@](C)(O)/C=C/C1=O	–	–	–	–
2.93	3.56	2.87	3.47	3.2	CC(C)=CCC[C@]1(C)/C=C/[C@@H](OC(=O)C=C(C)C)[C@](C)(O)/C=C/C(=O)/C(Cn2cc(CO)nn2)=C\C1	–	–	–	–
6.04	4	3.35	4.2	2.77	CC(C)=CCC[C@]1(C)/C=C/[C@@H](OC(=O)C=C(C)C)[C@](C)(O)/C=C/C(=O)/C(CO[Si](C)(C)C(C)(C)C)=C\C1	–	–	–	–
4.89	3.08	4.23	1.72	0.91	CC(C)=CCC[C@]1(C)/C=C/[C@@H](OC(=O)C=C(C)C)[C@](C)(O)/C=C/C(=O)/C(CN=[N+]=[N-])=C\C1	–	–	–	–
3.12	3.25	3.71	2.98	2.84	COCOC/C1=C/C[C@](C)(CCC=C(C)C)/C=C/[C@@H](OC(=O)C=C(C)C)[C@](C)(O)/C=C/C1=O	–	–	–	–
0.67	2.56	0.57	1.31	0.83	CC(C)=CCC[C@]1(C)/C=C/[C@@H](OC(=O)C=C(C)C)[C@](C)(O)/C=C/C(=O)/C(COC(=O)c2ccc([N+](=O)[O-])cc2)=C\C1	–	–	–	–
3.99	4.13	3.52	15.1	3.48	CC(=O)OC/C1=C/C[C@](C)(CCC=C(C)C)/C=C/[C@@H](OC(=O)C=C(C)C)[C@](C)(OC(C)=O)/C=C/C1=O	–	–	–	–
0.13	0.57	0.27	0.13	0.14	CCN(CC)C/C1=C/C[C@](C)(CCC=C(C)C)/C=C/[C@@H](OC(=O)C=C(C)C)[C@](C)(O)/C=C/C1=O	–	–	–	–
0.9	0.72	0.39	0.38	0.18	CSC(=S)OC/C1=C/C[C@](C)(CCC=C(C)C)/C=C/[C@@H](OC(=O)C=C(C)C)[C@](C)(O)/C=C/C1=O	–	–	–	–
6.04	7.81	2.51	4.1	4.18	CCCC(=O)O[C@@H]1/C=C/[C@@](C)(CCC=C(C)C)C/C=C(/CO)C(=O)/C=C/[C@@]1(C)O	–	–	–	–
0.78	0.34	0.75	0.65	0.74	CC(C)=CCC[C@]1(C)/C=C/[C@@H](OC(=O)C=C(C)C)[C@](C)(O)/C=C/C(=O)/C(CN(C(C)C)C(C)C)=C\C1	–	–	–	–
4.13	11	3.85	3.95	3.07	COC/C1=C/C[C@](C)(CCC=C(C)C)/C=C/[C@@H](OC(=O)C=C(C)C)[C@](C)(O)/C=C/C1=O	–	–	–	–
2.32	0.73	1.43	0.57	0.24	CC(C)=CCC[C@]1(C)/C=C/[C@@H](OC(=O)C=C(C)C)[C@](C)(O)/C=C/C(O)/C(C=O)=C\C1 (stereo not given in full)	–	–	–	–
0.52	1.14	0.77	0.66	1.11	CC(C)=CCC[C@]1(C)/C=C/[C@@H](OC(=O)C=C(C)C)[C@](C)(O)/C=C/C(=O)/C(CN2CCOCC2)=C\C1	–	–	–	–
3.67	3.67	3.3	2.7	3.34	CC(C)=CCC[C@]1(C)/C=C/[C@@H](OC(=O)C=C(C)C)[C@](C)(O)/C=C/C(=O)/C(C(=O)N(C)C)=C\C1	–	–	–	–
